Laboratory results reported in patent US20230414689A1, “COMPOSITION FOR PREVENTING, IMPROVING OR TREATING INFLAMMATORY BOWEL DISEASE, COMPRISING ISATIDIS FOLIUM EXTRACT” (MTHERA PHARMA CO., LTD, priority 2021, published 2023).

Assays:
[1] = system: 2.5% DSS-induced inflammatory bowel disease animal model; test: Body weight change in DSS-induced inflammatory bowel disease mice; format: in vivo, C57BL/6N male mice; conditions: 5-ASA 100 mg/kg oral for 10 days; 2.5% DSS in drinking water 8 days; body weight before DSS = 100%; negative control 84.50±2.78%, normal 104.89±1.09%
Procedure: (§1) 6-week-old C57BL/6N male mice were purchased and pre-bred for one week, and then they were randomly divided into a total of 4 groups of 8 mice per group, and experiments were conducted as shown in Table 1 below.
Body weight loss is a representative symptom of inflammatory bowel disease (Scientific Reports volume 10, Article number: 3829 (2020)). The body weight of the mouse was measured once a day at the same time (10 am) using an electronic scale. The rate of change in body weight of each group was obtained by summing the body weight of 8 mice per group and then dividing by 8. The average body weight immediately before the start of administration of 2.5% DSS in drinking water was set as 100%, and the average body weight of each group was calculated every day to measure the rate of change in body weight. Significance was verified by performing a Mann-Whitney test for each group between the negative control group to which 2.5% DSS was administered in drinking water and the experimental group.

[2] = system: 2.5% DSS-induced inflammatory bowel disease animal model; test: Spleen weight and length (spleen ratio) in DSS-induced inflammatory bowel disease mice; format: in vivo, C57BL/6N male mice; conditions: 5-ASA 100 mg/kg oral, last day of administration
Procedure: as §1
A representative symptom that can occur in relation to inflammatory bowel disease includes splenitis. As such, when the spleen becomes inflamed, the size of the spleen is increased by its nature (Nutrients 2019, 11(11), 2776), and in fact, it is known that the spleen becomes enlarged in the model of IBD induced after DSS treatment (Biol. Pharm. Bull. 43, 450-457 (2020)). Therefore, in order to evaluate the level of inflammation in the spleen of mice according to the administration of the Isatidis folium extract of the present invention, the mouse of Example 1 was sacrificed on the last day of each administration, and then the weight and length of the spleen of each group compared to those of the negative control group were measured, and the spleen ratio is shown.

Nc1ccc(O)c(C(=O)O)c1 [5-ASA, 5-aminosalicylic acid]
rate of change in body weight [1]: 88.62±1.52%
decrease of weight and length of the spleen compared to negative control group [2]: 60.6%
